Assay results as given in PMC11243625, “Synthesis, Docking, and Machine Learning Studies of Some Novel Quinolinesulfonamides–Triazole Hybrids with Anticancer Activity” (Molecules, 2024).
pIC50: −log10 of the molar value. In brackets after ≈: the same amount, converted by molar mass.

Experiments:
[1] = tested on: SNB-19; test: WST-1 test, glioblastoma cells; format: cell-based, human
Protocol: (§1) Hybrids 4–14 were tested as anticancer agents against four human cancer cell lines: colon cancer (Caco-2), glioblastoma (SNB-19), lung cancer (A549), ovarian cancer (SKOV-3), and normal human dermal fibroblasts (NHDFs). Cisplatin was used as the reference substance. The results are presented as the compound concentration of the compound (μM) that inhibits the growth of 50% of cancer cells compared to control cells (IC50). A negative value (Neg) means that the compound concentration of the tested hybrids was greater than 500 µM. […] It is generated only by a weak van der Waals interaction with Arg84. […] There is also a visible difference in activity depending on the type of group present on the triazole ring (substituent C in Figure 2). The results obtained indicate that hybrids containing aromatic systems as a C substituent in their structure, especially another quinoline molecule (compounds 9 and 10), have high activity.
(§2) Cell cultures were performed in 96-well plates (Nunc Thermo Fisher Scientific, Waltham, MA, USA). Cells were seeded at 5 × 10^4/well and incubated for 24 h (at 37 °C, 5% CO2, and constant humidity). The medium was replaced with fresh with the addition of test compounds at a concentration of 0.1–100 µg/mL of DMSO and incubated again for another 72 h. After this time, the WST-1 test (Roche Molecular Biochemicals, Mannheim, Germany) was performed to assess the metabolic activity of the cells. Absorbance was measured at λ = 450 nm using a UVM340 microplate reader (Biogenet, Józefów, Poland). Results are expressed as the mean value of at least three independent experiments performed in triplicate.

[2] = tested on: SKOV-3; test: WST-1 test, ovarian cancer cells; format: cell-based, human; conditions: Homo sapiens, SK-OV-3, 72 h
Protocol: as §1, §2

[3] = tested on: Caco-2; test: WST-1 test, colon cancer cells; format: cell-based, human; conditions: Homo sapiens, Caco-2, 72 h
Protocol: Hybrids 4–14 were tested as anticancer agents against four human cancer cell lines: colon cancer (Caco-2), glioblastoma (SNB-19), lung cancer (A549), ovarian cancer (SKOV-3), and normal human dermal fibroblasts (NHDFs).
as §2

[4] = tested on: NHDF; test: WST-1 test, normal human dermal fibroblasts; format: cell-based; conditions: Homo sapiens, NHDF; 72 h, WST-1, normal cells
Protocol: as §1, §2

[5] = tested on: A549; set-up: method as in doi:10.1016/j.arabjc.2016.10.009; conditions: values marked *; read-out: IC50 A-549; cited from earlier work
[6] = tested on: HCC; conditions: Figure 1; cited from earlier work
[7] = tested on: ROCK1; conditions: read-out: IC50 for ROCK1; cited from earlier work

Structure (SMILES) | pIC50 ([1]; Homo sapiens, SNB-19, 72 h) | pIC50 [2] | pIC50 [3] | pIC50 [4] | pIC50 [5] | pIC50 ([1]; 72 h) | IC50 HCC [6] [µg/mL] | pIC50 [7]
CCCCn1cc(CNS(=O)(=O)c2cccc3cccnc23)nn1 [Compound 12a, 8-N-{[1-(1-butyl)-1H-1,2,3-triazol-4-yl]methyl}quinolinesulfonamide] | 6.36 | 4.27 | 6.42 | < 3.30 | < 3.30 |  |  | 
CCOC(=O)CCn1cc(CNS(=O)(=O)c2cccc3cccnc23)nn1 [Compound 13a, Ethyl 3-{[4-(8-sulfamoylquinolyl)methyl]-1H-1,2,3-triazol-1-yl}propanoate] | ≥ 6.40 | 4.19 | 6.49 | 3.65 | < 3.30 | 6.41 |  | 
C=C(Cn1cc(CN(C)S(=O)(=O)c2cccc3cccnc23)nn1)[C@@H]1CC[C@]2(COC(C)=O)CC[C@]3(C)[C@H](CC[C@@H]4[C@@]5(C)CC[C@H](OC(C)=O)C(C)(C)[C@@H]5CC[C@]43C)[C@@H]12 [Compound 14b, 8-N-methyl-N-({1-[3β, 28-diacetoxylup-20(29)-en-30-yl]-1H-1,2,3-triazol-4-yl}methyl)-quinolinesulfonamide] | 5.03 | 5.96 | 4.74 | < 3.30 | < 3.30 |  |  | 
O=S(=O)(c1cccc2cnccc12)N1CCCNCC1 [Fasudil] |  |  |  |  |  |  | 0.04 (≈ 0.137 µM) | […]
